Data set [1] can be described thus: Partition coefficient (logP). It counts as physicochemical. The following applies: octanol/water.
Data set [2] concerns CCRF-CEM. The data set is described as follows: Effective dose against CCRF-CEM vcr 100 cells by using MTT assay. The format is functional, Homo sapiens. On the technique in general: Formazan colour is commonly taken as a measure of viable cells.
Data set [3] has as its system CCRF-CEM.
Description: Effective dose against CCRF-CEM vcr 100 cells by using rhodamine efflux studies.
The test system of data set [4] is CCRF-CEM. The data set is described as follows: Compound was tested for effective dose against CCRF-CEM vcr 100 cells by using MTT assay; na=not active. The format is functional, cell-based. The following applies: Homo sapiens.
Data set [5] has as its system CCRF-CEM. As to conditions: Homo sapiens.
Description: Compound was tested for effective dose against CCRF-CEM vcr 100 cells by using rhodamine efflux studies; na=not active

The source made the active and inactive calls. The calls are words filed in the database; no cut-off is given here.

On to `CC(=O)c1ccccc1OCC(O)CN1CCN(c2ccc(F)cc2)CC1` (stereo not drawn), for which the logP in data set [1] was 2.67. In addition, the values for the ED50 in the data set on CCRF-CEM [2] and with CCRF-CEM [3] were 890 nM and 8.61 uM l-1, respectively.
The corresponding values for `COc1ccc(N2CCN(CC(O)COc3ccccc3C(=O)CCc3ccccc3)CC2)cc1` (stereo not drawn) are 4.65, 110 nM and 0.28 uM l-1.
The like results for `Cc1ccccc1N1CCN(CC(O)COc2ccccc2C(=O)CCc2ccccc2)CC1` (stereo not drawn) were, in that order, 5.26, 50 nM and 0.06 uM l-1.
For the molecule `CCC(=O)c1ccccc1OCC(O)CN1CCOCC1` (stereo not drawn), the logP in data set [1] came out at 0.94. The ED50 result in the data set on CCRF-CEM [4] and in the data set on CCRF-CEM [5] was “inactive” in each case.
In data set [1], `O=C(CCc1ccccc1)c1ccccc1OCC(O)CN1CCCC1` (stereo not drawn) had a logP of 3.26. The results for the ED50 in the data set on CCRF-CEM [2] and with CCRF-CEM [3] were 520 nM and 2.55 uM l-1, respectively.
In turn, `O=C(CCc1ccccc1)c1ccccc1OCC(O)CNCc1ccccc1` (stereo not drawn) showed a logP in data set [1] of 4.3. In addition, the ED50 was found to be 190 nM in the data set with CCRF-CEM [2] and 0.41 uM l-1 with CCRF-CEM [3].
`CC(C)NCCc1oc2ccccc2c1CCc1ccccc1` gave a logP in data set [1] of 4.54. Further, the ED50 with CCRF-CEM [2] turned out to be 1100 nM; with CCRF-CEM [3], 5.8 uM l-1.
The corresponding values for `COc1ccccc1N1CCN(CC(=O)c2oc3ccccc3c2CCc2ccccc2)CC1` are 5.05, 2020 nM and 4.96 uM l-1.
The corresponding values for `O=C(CCc1ccccc1)c1ccccc1OCC(O)CN1CCOCC1` (stereo not drawn) are 2.54, 1490 nM and 13.56 uM l-1.
For the molecule `CCCNCC(O)COc1ccccc1C(=O)CCc1ccccc1` (stereo not drawn) [PROPAFENONE], the ED50 with CCRF-CEM [3] is 3.55 uM l-1.
`CN(C)CC(O)COc1ccccc1C(=O)CCc1ccccc1` (stereo not drawn) yielded a logP in data set [1] of 2.94. The ED50 with CCRF-CEM [2] came to 820 nM; in the data set on CCRF-CEM [3], 7.12 uM l-1.
For the molecule `CC(C)N(CC(O)COc1ccccc1C(=O)CCc1ccccc1)C(C)C` (stereo not drawn), the logP in data set [1] was 4.25. The ED50 with CCRF-CEM [2] was 290 nM; in the data set on CCRF-CEM [3] it was 0.61 uM l-1.
In turn, `O=C(CCc1ccccc1)c1ccccc1OCC(O)CN1CCN(c2ccc(F)cc2)CC1` (stereo not drawn) displayed a logP in data set [1] of 4.93. In addition, the ED50 is 150 nM in the data set with CCRF-CEM [2] and 0.16 uM l-1 in the data set on CCRF-CEM [3].
Consider `O=C(CCc1ccccc1)c1ccccc1OCC(O)CN1CCCCC1` (stereo not drawn), for which, in data set [1], the log partition coefficient (logP) stood at 3.67. The results for the ED50 in the data set on CCRF-CEM [2] and with CCRF-CEM [3] were 290 nM and 1.65 uM l-1, respectively.
The corresponding values for `COc1ccccc1N1CCN(CC(O)c2oc3ccccc3c2CCc2ccccc2)CC1` (stereo not drawn) are 5.32, 210 nM and 0.46 uM l-1.
With `CCCNCC(O)c1oc2ccccc2c1CCc1ccccc1` (stereo not drawn), in data set [1], the logP is 4.07. For the same molecule, the ED50 in the data set with CCRF-CEM [2] was determined as 1800 nM; in the data set on CCRF-CEM [3], 13.61 uM l-1.
In the case of `CCN(CC)CC(O)COc1ccccc1C(=O)CCc1ccccc1` (stereo not drawn), the lipophilicity (logP) in data set [1] is 3.62. Besides, the values for the ED50 with CCRF-CEM [2] and with CCRF-CEM [3] were 390 nM and 1.4 uM l-1, respectively.
The like results for `CCCN(C)CC(O)COc1ccccc1C(=O)CCc1ccccc1` (stereo not drawn) were, in that order, 3.77, 270 nM and 1.36 uM l-1.
In data set [1], `CCCNCCc1oc2ccccc2c1CCc1ccccc1` showed a logP of 4.71. Also, the ED50 amounted to 870 nM with CCRF-CEM [2] and 2.9 uM l-1 in the data set on CCRF-CEM [3].
The corresponding values for `CCCNCC(O)c1oc2ccccc2c1CC` (stereo not drawn) are 3.1, 4190 nM and 69.6 uM l-1.

As usually defined, the logP is a log measure of how a compound divides between an organic and an aqueous phase. Read a high logP as a more lipophilic compound.

These data come from ChEMBL document CHEMBL1129415, “Structure-activity relationship studies on benzofuran analogs of propafenone-type modulators of tumor cell multidrug resistance” (J Med Chem, 1996).
